Laboratory results taken from article PMC6268188, “Comparative Studies of the (Anti) Mutagenicity of Baccharis dracunculifolia and Artepillin C by the Bacterial Reverse Mutation Test” (Molecules, 2012).
“And” between values parts separate entries of the source, which are not always exact repeats. Equal values may be shown once. Read-outs that look alike come from different tables or passages of the source.

Legend:
S. typhimurium TA97a [1] = conditions: 5.49 µg/plate, TA 97, − S9
S. typhimurium TA98 = experiment: Antimutagenicity assay (Ames test with known mutagens), strain TA98; type: cell-based, Salmonella typhimurium
S. typhimurium TA97a [2] = test system: S. typhimurium TA97a
[3] = 0.69 µg/plate + B[a]P 1.0 μg/plate, TA 98, + S9
[4] = 0.69 µg/plate + NOPD 10.0 μg/plate, TA 98, − S9
[5] = 1.37 µg/plate + B[a]P 1.0 μg/plate, TA 98, + S9
[6] = 1.37 µg/plate + NOPD 10.0 μg/plate, TA 98, − S9
[7] = 2.75 µg/plate + B[a]P 1.0 μg/plate, TA 98, + S9
[8] = 2.75 µg/plate + NOPD 10.0 μg/plate, TA 98, − S9
[9] = 5.49 µg/plate + B[a]P 1.0 μg/plate, TA 98, + S9
[10] = 5.49 µg/plate + NOPD 10.0 μg/plate, TA 98, − S9
[11] = […] + B[a]P 1.0 μg/plate, TA 98, + S9
[12] = […] + NOPD 10.0 μg/plate, TA 98, − S9
[13] = 0.69 µg/plate + AA 1.25 μg/plate, TA 97a, + S9
[14] = 0.69 µg/plate + NOPD 10.0 μg/plate, TA 97a, − S9
[15] = 1.37 µg/plate + AA 1.25 μg/plate, TA 97a, + S9
[16] = 1.37 µg/plate + NOPD 10.0 μg/plate, TA 97a, − S9
[17] = 2.75 µg/plate + AA 1.25 μg/plate, TA 97a, + S9
[18] = 2.75 µg/plate + NOPD 10.0 μg/plate, TA 97a, − S9
[19] = 5.49 µg/plate + AA 1.25 μg/plate, TA 97a, + S9
[20] = 5.49 µg/plate + NOPD 10.0 μg/plate, TA 97a, − S9
[21] = […] + AA 1.25 μg/plate, TA 97a, + S9
[22] = […] + NOPD 10.0 μg/plate, TA 97a, − S9

CC(C)=CCc1cc(/C=C/C(=O)O)cc(CC=C(C)C)c1O [ArtC, 3-{4-hydroxy-3,5-di(3-methyl-2-butenyl)phenyl}-2(E)-propenoic acid]
MI (mutagenicity index) (S. typhimurium TA97a [1]): 1.4 | Number of revertants (M ± SD)/ plate (S. typhimurium TA97a [1]): 207 ± 5 revertants/plate | % inhibition (S. typhimurium TA98; [3]): 38% | antimutagenic effect class (S. typhimurium TA98; [3]): ** (moderate effect (25% - 40% inhibition)) | % inhibition (S. typhimurium TA98; [4]): 37% | Number of revertants (M ± SD)/ plate (S. typhimurium TA98; [4]): 526 ± 12 revertants/plate | antimutagenic effect class (S. typhimurium TA98; [4]): ** (moderate effect (25% - 40% inhibition)) | % inhibition (S. typhimurium TA98; [5]): 43% | antimutagenic effect class (S. typhimurium TA98; [5]): *** (strong antimutagenic effect (> 40% inhibition)) | % inhibition (S. typhimurium TA98; [6]): 38% | Number of revertants (M ± SD)/ plate (S. typhimurium TA98; [6]): 520 ± 18 revertants/plate | antimutagenic effect class (S. typhimurium TA98; [6]): ** (moderate effect (25% - 40% inhibition)) | % inhibition (S. typhimurium TA98; [7]): 56% | antimutagenic effect class (S. typhimurium TA98; [7]): *** (strong antimutagenic effect (> 40% inhibition)) | % inhibition (S. typhimurium TA98; [8]): 42% | Number of revertants (M ± SD)/ plate (S. typhimurium TA98; [8]): 484 ± 31 revertants/plate | antimutagenic effect class (S. typhimurium TA98; [8]): *** (strong antimutagenic effect (> 40% inhibition)) | % inhibition (S. typhimurium TA98; [9]): 56% | antimutagenic effect class (S. typhimurium TA98; [9]): *** (strong antimutagenic effect (> 40% inhibition)) | % inhibition (S. typhimurium TA98; [10]): 37% | Number of revertants (M ± SD)/ plate (S. typhimurium TA98; [10]): 532 ± 27 revertants/plate | antimutagenic effect class (S. typhimurium TA98; [10]): ** (moderate effect (25% - 40% inhibition)) | % inhibition (S. typhimurium TA98; [11]): 62% | antimutagenic effect class (S. typhimurium TA98; [11]): *** (strong antimutagenic effect (> 40% inhibition)) | % inhibition (S. typhimurium TA98; [12]): 41% | antimutagenic effect class (S. typhimurium TA98; [12]): *** (strong antimutagenic effect (> 40% inhibition)) | Number of revertants (M ± SD)/ plate (S. typhimurium TA97a [2]): 891 ± 17 revertants/plate and 1602 ± 17 revertants/plate | % inhibition (S. typhimurium TA97a [2]; [13]): 14% | Number of revertants (M ± SD)/ plate (S. typhimurium TA97a [2]; [13]): 1603 ± 26 revertants/plate | antimutagenic effect class (S. typhimurium TA97a [2]; [13]): * (no antimutagenic effect (< 25% inhibition)) | % inhibition (S. typhimurium TA97a [2]; [14]): 21% | Number of revertants (M ± SD)/ plate (S. typhimurium TA97a [2]; [14]): 876 ± 8 revertants/plate | antimutagenic effect class (S. typhimurium TA97a [2]; [14]): * (no antimutagenic effect (< 25% inhibition)) | % inhibition (S. typhimurium TA97a [2]; [15]): 13% | Number of revertants (M ± SD)/ plate (S. typhimurium TA97a [2]; [15]): 1617 ± 16 revertants/plate | antimutagenic effect class (S. typhimurium TA97a [2]; [15]): * (no antimutagenic effect (< 25% inhibition)) | % inhibition (S. typhimurium TA97a [2]; [16]): 22% | Number of revertants (M ± SD)/ plate (S. typhimurium TA97a [2]; [16]): 862 ± 14 revertants/plate | antimutagenic effect class (S. typhimurium TA97a [2]; [16]): * (no antimutagenic effect (< 25% inhibition)) | % inhibition (S. typhimurium TA97a [2]; [17]): 10% | Number of revertants (M ± SD)/ plate (S. typhimurium TA97a [2]; [17]): 1669 ± 19 revertants/plate | antimutagenic effect class (S. typhimurium TA97a [2]; [17]): * (no antimutagenic effect (< 25% inhibition)) | % inhibition (S. typhimurium TA97a [2]; [18]): 20% | Number of revertants (M ± SD)/ plate (S. typhimurium TA97a [2]; [18]): 885 ± 19 revertants/plate | antimutagenic effect class (S. typhimurium TA97a [2]; [18]): * (no antimutagenic effect (< 25% inhibition)) | % inhibition (S. typhimurium TA97a [2]; [19]): 13% | Number of revertants (M ± SD)/ plate (S. typhimurium TA97a [2]; [19]): 1620 ± 21 revertants/plate | antimutagenic effect class (S. typhimurium TA97a [2]; [19]): * (no antimutagenic effect (< 25% inhibition)) | % inhibition (S. typhimurium TA97a [2]; [20]): 16% | Number of revertants (M ± SD)/ plate (S. typhimurium TA97a [2]; [20]): 933 ± 7 revertants/plate | antimutagenic effect class (S. typhimurium TA97a [2]; [20]): * (no antimutagenic effect (< 25% inhibition)) | reduction of NOPD mutagenicity (S. typhimurium TA97a [2]; TA97a, NOPD): no antimutagenic activity | reduction of AA mutagenicity (S. typhimurium TA97a [2]; TA97a, with metabolic activation, AA): no antimutagenic activity | % inhibition (S. typhimurium TA97a [2]; [21]): 14% | antimutagenic effect class (S. typhimurium TA97a [2]; [21]): * (no antimutagenic effect (< 25% inhibition)) | % inhibition (S. typhimurium TA97a [2]; [22]): 19% | antimutagenic effect class (S. typhimurium TA97a [2]; [22]): * (no antimutagenic effect (< 25% inhibition)) | MI (mutagenicity index) (S. typhimurium TA102; 0.69 µg/plate, TA 102, + S9): 0.9 | Number of revertants (M ± SD)/ plate (S. typhimurium TA102; 0.69 µg/plate, TA 102, + S9): 204 ± 4 revertants/plate | MI (mutagenicity index) (S. typhimurium TA102; 0.69 µg/plate, TA 102, − S9): 0.9 | Number of revertants (M ± SD)/ plate (S. typhimurium TA102; 0.69 µg/plate, TA 102, − S9): 204 ± 4 revertants/plate | MI (mutagenicity index) (S. typhimurium TA102; 1.37 µg/plate, TA 102, + S9): 1.0 | Number of revertants (M ± SD)/ plate (S. typhimurium TA102; 1.37 µg/plate, TA 102, + S9): 213 ± 3 revertants/plate | MI (mutagenicity index) (S. typhimurium TA102; 1.37 µg/plate, TA 102, − S9): 1.0 | Number of revertants (M ± SD)/ plate (S. typhimurium TA102; 1.37 µg/plate, TA 102, − S9): 213 ± 3 revertants/plate | MI (mutagenicity index) (S. typhimurium TA102; 2.75 µg/plate, TA 102, + S9): 0.9 | Number of revertants (M ± SD)/ plate (S. typhimurium TA102; 2.75 µg/plate, TA 102, + S9): 187 ± 5 revertants/plate | MI (mutagenicity index) (S. typhimurium TA102; 2.75 µg/plate, TA 102, − S9): 0.9 | Number of revertants (M ± SD)/ plate (S. typhimurium TA102; 2.75 µg/plate, TA 102, − S9): 187 ± 5 revertants/plate | MI (mutagenicity index) (S. typhimurium TA102; 5.49 µg/plate, TA 102, + S9): 1.0 | Number of revertants (M ± SD)/ plate (S. typhimurium TA102; 5.49 µg/plate, TA 102, + S9): 215 ± 5 revertants/plate | MI (mutagenicity index) (S. typhimurium TA102; 5.49 µg/plate, TA 102, − S9): 1.0 | Number of revertants (M ± SD)/ plate (S. typhimurium TA102; 5.49 µg/plate, TA 102, − S9): 215 ± 5 revertants/plate | MI (mutagenicity index) (S. typhimurium TA102; Salmonella typhimurium): 203 ± 6 (0.9) | Number of revertants (M ± SD)/ plate (S. typhimurium TA102; Salmonella typhimurium): 203 ± 6 (0.9) revertants/plate
